Test results as given in patent US5081131A, “Omega-((hetero)alkyl)benz(cd)-indol-2-amines” (American Cyanamid Company, priority 1988, dated 1992).
Counter-ions that a name gives are not always drawn.

Key:
[1] = test system: thevetin-induced arrhythmia in guinea pigs; assay: Thevetin (cardiac glycoside)-induced arrhythmia in guinea pigs; type: in vivo, guinea pig; settings: for Time (Minutes) Before Induced Arrhythmia: saline 22.91±0.5 minutes
Protocol: Male guinea pigs, weighing 300-500 g each, from Summit View Farms, Belvidere, N.J., were anesthetized by intraperitoneal adminstration of urethan at 1500 mg/kg. The animals were then restrained in a supine position. Electrocardiogram leads were attached to the four limbs and Lead II of the electrocardiogram was monitored.
The neck region was exposed and the jugular vein was cannulated. The test compounds were dissolved in saline and administered intravenously at the indicated doses, via a cannula which was then flushed with saline. Five minutes after the test compound was administered, thevetin dissolved in saline was administered by infusion through a cannula at a dose of 0.1 mg/kg/minute in a volume of 0.1 ml. The time until the P wave of the electrocardiogram disappeared was determined.

[2] = molecular target: T1, thromboxane synthetase enzyme (Rattus norvegicus, UniProt P49430); assay: Thromboxane synthetase enzyme inhibition (TXB2 formation in washed platelets, RIA); type: cell-based, spontaneously hypertensive rat; settings: 1×10^-4 Molar, SHR platelets, 10 min at 37° C.; for inhibition at 100 µM: read-out: % Inhibition (Thromboxane Synthetase Enzyme Inhibition)
T1 construct: endogenous in cells; host or cells: washed platelets from arterial blood of male Okamoto-Aoki spontaneously hypertensive rats (animals from Taconic Farms, Germantown, N.Y.)
T1 sequence (P49430 1-533): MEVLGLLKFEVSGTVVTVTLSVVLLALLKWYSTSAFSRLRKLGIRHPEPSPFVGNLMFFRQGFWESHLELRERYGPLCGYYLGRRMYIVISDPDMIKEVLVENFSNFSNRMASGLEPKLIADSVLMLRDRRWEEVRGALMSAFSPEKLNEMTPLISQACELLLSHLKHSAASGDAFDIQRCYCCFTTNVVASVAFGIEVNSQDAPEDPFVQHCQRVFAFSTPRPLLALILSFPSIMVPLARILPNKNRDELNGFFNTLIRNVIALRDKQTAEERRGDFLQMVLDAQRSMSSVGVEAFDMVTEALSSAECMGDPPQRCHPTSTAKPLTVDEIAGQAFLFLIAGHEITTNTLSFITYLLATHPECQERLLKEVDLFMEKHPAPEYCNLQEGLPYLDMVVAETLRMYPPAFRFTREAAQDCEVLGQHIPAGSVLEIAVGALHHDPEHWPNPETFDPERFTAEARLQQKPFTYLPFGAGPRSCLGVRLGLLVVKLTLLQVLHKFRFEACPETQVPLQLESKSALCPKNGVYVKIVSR
Protocol: The blood was diluted with 3 ml cold saline and centrifuged at room temperature for 15 min at 468×g. The platelet rich plasma (PRP) was separated. The platelets were isolated by certrifuging the PRP for 10 minutes at 1060×g and washed in 4 ml cold oxygenated Krebs phosphate buffer, pH 7.4. The chilled platelets recovered from centrifuging at 800×g for 10 minutes were resuspended in oxygenated Krebs phosphate buffer and diluted to contain 4.0-6.0×10^4 platelets/micro-liters. The inhibition of TX formation was studied by determining the concentration of thromboxane B2 (TXB2), the stable hydrolysis product of TXA2. Assay samples prepared on ice, contained 200 micro-liters platelet suspension, 50 micro-liters saline, and 50 micro-liters […] (saline) or drug under study. The test drug (0.003 mole) was dissolved in 5 ml of saline. […] The assay samples were incubated for 10 minutes at 37° C. in a metabolic shaker at about 60 rpm. The reaction was terminated by immersing the tubes in an ice bath and adding 50 micro-liters of 0.5M citric acid. The samples were centrifuged for 10 minutes at 2000 rpm at 4° C., and the supernatants were decanted.

[3] = test system: spontaneously hypertensive rats; assay: Hypotensive activity in spontaneously hypertensive rats (MABP); type: in vivo, rat (Okamoto strain); settings: SHR, gavage, two doses of 10 mg/kg or less 24 h apart, MABP at 28 h; average baseline 160±1.5 mm Hg
How it was run: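 Male 16-week Okamoto spontaneously hypertensive rats dosed by gavage in 2% starch at 10 mg/kg or less with 0.9% NaCl loading 25 ml/kg; identical dose without saline given 24 hours later. Mean arterial blood pressure measured 28 hours after first dose; 1 to 4 rats per compound.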

[4] = intravenous doses as high as 20 mg/kg

Structure (SMILES) | inhibition at 100 µM [2] [%] | Avg. MABP in mm Hg (No. of Rats) [3] [mm Hg] | Time (Minutes) Before Induced Arrhythmia ([1]; IV dose 20 mg/kg) [min] | other results
CC(C)NC[C@H](O)COc1cccc2ccccc12 (racemic) [Propanolol, reference compound] | – | – | – | activity in thevetin-induced arrhythmia test ([1]; intravenous dose of 2 mg/kg): active; time protected before arrhythmia occurred ([1]; intravenous dose of 2 mg/kg): 47.0 ± 4.1 min
O=C(CNC1=Nc2cccc3cccc1c23)NCCCn1ccnc1 [2-(Benz(cd)indol-2-ylamino)-N-(3-(1H-imidazol-1-yl)propyl)acetamide] | 100 | – | – | Time (Minutes) Before Induced Arrhythmia ([1]; IV dose 25 mg/kg): 33 min
CC(CCNC1=Nc2c(Cl)cc(Cl)c3cccc1c23)n1ccnc1 (stereo not shown) [6,8-Dichloro-N-(3-(1H-imidazol-1-yl)butyl)benz(cd)indol-2-amine] | – | 102 | 32 | –
Clc1cc(Cl)c2cccc3c2c1N=C3NCCCCCn1ccnc1 [6,8-Dichloro-N-(5-(1H-imidazol-1-yl)pentyl)benz(cd)indol-2-amine] | – | 119 | 33.4 | –
CC(CCNC1=Nc2ccc(Br)c3cccc1c23)n1ccnc1 (stereo not shown) [6-Bromo-N-(3-(1H-imidazol-1-yl)butyl)benz(cd)indol-2-amine] | 100 | 120 | – | Time (Minutes) Before Induced Arrhythmia ([1]; IV dose 30 mg/kg): 34.7 min
Brc1ccc2c3c(cccc13)C(NCCCCCn1ccnc1)=N2 [6-Bromo-N-(5-(1H-imidazol-1-yl)pentyl)benz(cd)indol-2-amine] | 97 | 118 | 37 | –
C(=C\Cn1ccnc1)/CNC1=Nc2cccc3cccc1c23 [(E)-N-(4-(1H-imidazol-1-yl)-2-butenyl)benz(cd)indol-2-amine, hydriodide] | 100 | – | – | Time (Minutes) Before Induced Arrhythmia ([1]; IV dose 10 mg/kg): 34.3 min
O=C(O)c1ccc(OCCn2ccnc2)cc1 [Dazoxiben hydrochloride, 4-(2-(1H-imidazol-l-yl)ethoxy)benzoic acid, monohydrochloride, reference compound] | – | – | – | activity in thevetin-induced arrhythmia test [1, 4]: inactive; time before arrhythmia occurred [1, 4]: 22.2 ± 1.9 min
CC(CCNC1=Nc2ccc(S(=O)(=O)N(C)C)c3cccc1c23)n1ccnc1 (stereo not shown) [N,N-Dimethyl-2-((3-(1H-imidazol-1-yl)butyl)amino)benz(cd)indol-6-sulfonamide] | 99 | – | – | Time (Minutes) Before Induced Arrhythmia ([1]; IV dose 10 mg/kg): 33.6 min
CN(C)S(=O)(=O)c1ccc2c3c(cccc13)C(NCCCn1ccnc1)=N2 [N,N-Dimethyl-2-((3-(1H-imidazol-1-yl)propyl)amino)benz(cd)indol-6-sulfonamide] | 100 | – | 33.4 | –
O=C(O)/C=C/C(=O)O.c1ccc(C(CCn2ccnc2)NC2=Nc3cccc4cccc2c34)cc1 (stereo not shown) [N-(3-(1H-imidazol-1-yl)-1-phenylpropyl)benz(cd)indol-2-amine, fumarate] | 100 | – | – | Time (Minutes) Before Induced Arrhythmia ([1]; IV dose 30 mg/kg): 34 min
CC(CNC1=Nc2cccc3cccc1c23)Cn1ccnc1.O=C(O)/C=C/C(=O)O (stereo not shown) [N-(3-(1H-imidazol-1-yl)-2-methylpropyl)benz(cd)indol-2-amine, fumarate] | – | – | 34.5 | % Inhibition (Thromboxane Synthetase Enzyme Inhibition) [2]: 100%
CC(=Cc1ccc(Cc2cccnc2)cc1)C(=O)O [OKY-1581, 2-methyl-3-(4-(3-pyridinylmethyl)phenyl-2-propenoic acid, sodium salt, reference compound] | – | – | – | activity in thevetin-induced arrhythmia test [1, 4]: inactive; time before arrhythmia occurred [1, 4]: 24.3 ± 2.2 min
